From paper PMC3542833 (Journal of the American Chemical Society, 2012)

Legend:
tubulin [1] = test: inhibition of colchicine binding; settings: 5 μM inhibitor; enantiopure analogues
NCI-60 = test: NCI 60-cell screen; type: cell-based; settings: read-out: NCI-60 Mean GI50; mean over NCI-60 panel; enantiopure analogues
tubulin [2] = settings: previous finding; ref 5a; cited from earlier work
tubulin [3] = test: tubulin assembly assay; type: biochemical; settings: read-out: Inhibition of Tubulin Assembly IC50±SD; enantiopure analogues

## (+)-chamaecypanone C [(+)-2]
Tubulin [1]
  % Inhibition of Colchicine Binding ± SD: 30±4.0%
NCI-60
  GI50: 280 nM
Tubulin [2]
  activity of chamaecypanone C enantiomers (in words): active
Tubulin [3]
  IC50: 2200 ± 300 nM
